In paper PMC12587545, “Noncytotoxic polymyxin derivatives enhance antibiotic action against multidrug-resistant Gram-negative bacteria” (Antimicrobial Agents and Chemotherapy, 2025):
Like-named read-outs stand apart in the source and are kept apart here. Positions of bridges follow the written chain, without caps; N, C: chain ends. Non-standard residues stand in square brackets, D forms with d. Residues, ends and D or L forms follow the SMILES beside them. *: point of attachment. Octanoyl = CCCCCCCC(=O)*; Dab = NCC[C@H](N)C(=O)O

Experiments:
RPTEC/TERT1 = format: cell-based, human; details: 48 h
Method: (§1) Kidney cell lines, HK-2 (CRL-2190) and RPTEC/TERT1 (CRL-4031), and neural cell lines, U-87 MG (HTB-14) and SK-N-SH (HTB-11), were obtained from American Type Culture Collection (ATCC). HK-2 cells were cultured in T75 flasks with keratinocyte serum-free medium supplemented with bovine pituitary extract, human epidermal growth factor, and 2.5% FBS. RPTEC/TERT1 cells were cultured in T75 flasks with Dulbecco’s modified Eagle’s medium:F12 supplemented with the ATCC (United States) human telomerase reverse transcriptase immortalized RPTEC growth kit, G418 (0.1 mg/mL final concentration), and 2% FBS. Both U-87 MG and SK-N-SH cells were cultured in minimal essential media supplemented with 10% FBS. The cells were incubated in a humidified atmosphere at 5% CO2 and at 37°C.
(§2) The cytotoxicity of the compounds toward the mammalian cell lines was assessed using the cell viability assay protocols as previously described ([29]). Designated wells in 96-well plates were seeded with HK-2 (5,000 cells), RPTEC/TERT1 (8,000 cells), U-87 MG (7,000 cells), or SK-N-SH (8,000 cells) in 50 µL. Blank wells received an identical volume of only media. After incubating the cells for 24 h, all wells were treated with varying concentrations of the compound and incubated for 48 h. Subsequently, PrestoBlue reagent (Invitrogen, United States) was added to the wells to a final concentration of 10% (vol/vol), and the plate was incubated for an additional 1 h. Fluorescence was measured with a SpectraMax M2 plate reader (Molecular Devices, United States), at excitation and emission wavelengths of 560 and 590 nm, respectively. Values from the blank wells were subtracted from the corresponding wells containing cells. The cell viability relative to the controls with vehicle was calculated and presented as mean ± standard deviation of at least two experiments with five replicates each. CC50 values were obtained using GraphPad Prism (version 10.4.1) by non-linear regression (four-parameter logistic fit).

HK-2 = format: cell-based, human
Method: as §1, §2

K. pneumoniae = tested on: K. pneumoniae
Method: (§3) The bacterial isolates were acquired from ATCC or the Canadian Ward Surveillance (CANWARD) study ([56]). CANWARD isolates were collected from infected patients admitted to participating medical centers across Canada.
(§4) The antibiotic or compound was serially diluted 2-fold in CAMHB on a 96-well plate and was incubated with equal volumes of bacterial inoculum overnight at 37°C. Wells containing only media were used as negative controls, and wells containing only bacteria were used as positive controls. Antibacterial activity was measured by the MIC, or the lowest concentration of agent required to inhibit visible bacterial growth. Turbidity was confirmed with a Molecular Devices (United States) EMax Plus microplate reader at a wavelength of 590 nm.

E. cloacae = E. cloacae 117029; Table S4
Method: as §3, §4

P. aeruginosa = tested on: P. aeruginosa
Method: as §3, §4

E. coli = details: Table S4
Method: as §3
as §4, with “growth.” for “growth. Turbidity was confirmed with a Molecular Devices (United States) EMax Plus microplate reader at a wavelength of 590 nm.”

A. baumannii = format: cell-based, Acinetobacter baumannii
Method: Gram-negative and Gram-positive bacterial isolates were grown in lysogeny broth (LB) and brain heart infusion, respectively, overnight in a shaking incubator at 250 rpm and at 37°C.
The antibacterial activity of the antibiotics and compounds was assessed using the broth microdilution assay in accordance with Clinical Laboratory Standards Institute (CLSI) guidelines ([36]), and by following a previously described protocol ([27][–][29], [54], [55]). Bacterial culture grown overnight was diluted in saline to 0.5 McFarland turbidity and was further diluted 1:50 in CAMHB to attain a final concentration of 5 × 10^5 colony-forming units (cfu)/mL for inoculation. The antibiotic or compound was serially diluted 2-fold in CAMHB on a 96-well plate and was incubated with equal volumes of bacterial inoculum overnight at 37°C. Wells containing only media were used as negative controls, and wells containing only bacteria were used as positive controls. Antibacterial activity was measured by the MIC, or the lowest concentration of agent required to inhibit visible bacterial growth. Turbidity was confirmed with a Molecular Devices (United States) EMax Plus microplate reader at a wavelength of 590 nm.

CCCCCCCC(=O)N[C@@H](CCN)C(=O)N[C@H](C(=O)N[C@@H](CCN)C(=O)N[C@H]1CCNC(=O)[C@H]([C@@H](C)O)NC(=O)[C@H](CCN)NC(=O)[C@H](CCN)NC(=O)[C@H]([C@@H](C)O)NC(=O)[C@@H]([C@H](C)O)NC(=O)[C@H](CCN)NC1=O)[C@@H](C)O [Compound F230] (Octanoyl-[Dab]T[Dab][Dab][Dab][dT]T[Dab][Dab]T; lactam 4-C)
CC50 in RPTEC/TERT1 (RPTEC/TERT1): 471.4 µM
CC50 in HK-2 (HK-2; 48 h): 263.1 µM

CCCCCCCC(=O)N[C@@H](CCN)C(=O)N[C@H](C(=O)N[C@@H](CC(=O)O)C(=O)N[C@H]1CCNC(=O)[C@H]([C@@H](C)O)NC(=O)[C@H](CCN)NC(=O)[C@H](CCN)NC(=O)[C@H](CC(C)C)NC(=O)[C@@H](Cc2ccccc2)NC(=O)[C@H](CCN)NC1=O)[C@@H](C)O [Compound 4] (Octanoyl-[Dab]TD[Dab][Dab][dF]L[Dab][Dab]T; lactam 4-C)
CC50 in RPTEC/TERT1 (RPTEC/TERT1): 238.8 µM
CC50 in HK-2 (HK-2): 236.1 µM
CC50 in HK-2 (HK-2; 48 h): 236.8 µM

CN(C)c1cc(CNCC(C)(C)C)c(O)c2c1C[C@H]1C[C@H]3[C@H](N(C)C)C(O)=C(C(N)=O)C(=O)[C@@]3(O)C(O)=C1C2=O [OMC, omadacyline]
Resistance phenotype (antibiotic susceptibility profile) (K. pneumoniae; K. pneumoniae 113250): 2
Resistance phenotype (antibiotic susceptibility profile) (K. pneumoniae; K. pneumoniae 116381): 4
Resistance phenotype of MDR clinical isolates (antibiotic susceptibility value) (E. cloacae): 4
Resistance phenotype (antibiotic susceptibility profile) (P. aeruginosa; P. aeruginosa 259-96916): 64
Resistance phenotype (antibiotic susceptibility profile) (P. aeruginosa; P. aeruginosa 262-101856): 64
Resistance phenotype (antibiotic susceptibility profile) (P. aeruginosa; P. aeruginosa 264-104354): 64
Resistance phenotype (antibiotic susceptibility profile) (P. aeruginosa; P. aeruginosa 114228): 128
Resistance phenotype of MDR clinical isolates (antibiotic susceptibility value) (E. coli; E. coli 94393 (mcr-1 +)): 4
Resistance phenotype of MDR clinical isolates (antibiotic susceptibility value) (E. coli; E. coli 94474 (mcr-1 +)): 16
Resistance phenotype of MDR clinical isolates (antibiotic susceptibility value) (E. coli; E. coli 107115): 4
Resistance phenotype (antibiotic susceptibility profile) (A. baumannii; A. baumannii AB027): 1
Resistance phenotype (antibiotic susceptibility profile) (A. baumannii; A. baumannii AB031): 2
